Paper PMC4503439, “Dose-Independent ADME Properties and Tentative Identification of Metabolites of α-Mangostin from Garcinia mangostana in Mice by Automated Microsampling and UPLC-MS/MS Methods” (PLoS ONE, 2015)
Entries after “also recorded” stand apart in the source; their conditions may differ. Like-named read-outs stand apart in the source and are kept apart here.

Experiments:
[1] = Pharmacokinetics of α-MG after intravenous administration to mice (automated microsampling); format: in vivo; conditions: for CL renal / MRT / clearance / AUC / half-life / Vd: mouse, plasma; for half-life: read-out: Terminal half-life; for Vd: read-out: V ss
Description: The surgical procedures were conducted under intramuscular injection anesthesia with 125 mg (1.5 mL)/kg of tiletamine HCl and zolazepam HCl mixture. The carotid artery (for intravenous and oral studies) and the jugular vein (for intravenous study) were cannulated using CX-2052S and CX-2022S catheters (BASi, West Lafayette, IN), respectively. After the mice awoke from anesthesia, the administration of α-MG and blood sampling were performed, [12], [31].
In intravenous study, α-MG (dissolved in PEG 400: distilled water = 6:4, v/v) at doses of 5, 10 and 20 mg (5 mL)/kg was administered through the jugular vein. The micro-sampling system (Culex BASi, West Lafayette, IN) was programmed to collect a 10 μL sample of blood into a micro-vial containing 50 μL of 12.5 units/mL heparinized saline. Blood loss due to blood sampling was replaced with equal volumes of heparinized saline. Blood samples were collected at 0, 1, 5, 15, 30, 60, 90, 120, 180, 240, 300 and 360 min after intravenous administration of the α-MG with virtually no blood loss. After centrifugation of each micro-vial, 50 μL of supernatant was collected. At the end of 24 h, each metabolic cage was rinsed with 5 mL of distilled water and the resulting fluid combined with the urine collected over the previous 24 h. At this time, each mouse was sacrificed by cervical dislocation, and then the entire gastrointestinal tract (including its contents and feces) was removed, transferred into a beaker that contained 10 mL of methanol (to facilitate the extraction of α-MG) and the gastrointestinal tract was cut into small pieces. After manual shaking and stirring, a 50 μL aliquot of the supernatant was collected from each beaker and stored.
The analytical method for measuring α-MG was modified from a previous report. In sample preparation, 100 μL of acetonitrile containing 1 μg/mL IS was added to 50 μL of aliquot of the sample. After vortex-mixing and centrifugation (15000 × g for 10 min), 10 μL of the supernatant was directly injected into a reversed-phase C18 column (Cadenza CD-C18, 2 mm × 75 mm i.d., 3-μm particle size; Imtakt, USA) kept at 4°C until injection. The analytes were monitored using a API4000 triple quadrupole mass spectrometer (AB Sciex, Foster City, CA) equipped with a turbo ion-spray interface for electrospray ionization and operated in positive ion mode at 5500 V and 500°C at 50 L/min of nebulizing gas flow, 50 L/min of turbo ion-spray gas flow, 20 L/min of curtain gas flow, 5500 V of ring voltage and 5 Torr of collision gas (nitrogen) pressure.
Standard methods were used to calculate the following pharmacokinetic parameters using a non-compartmental analysis (WinNonlin 2.1; Pharmasight Corp., Mountain View, CA). The extent of absolute oral bioavailability (F) was calculated by dividing the AUCoral/AUCiv at the same dose. The peak plasma concentration (C max) and time to reach C max (T max) were read directly from the […] data.

[2] = Tissue distribution of α-MG (tissue-to-plasma ratios) after intravenous and oral administration; format: in vivo, mice
Description: The surgical procedures and administration of α-MG were conducted according to a previously reported method, [12], [31]. At 30 and 180 min after intravenous and oral administration of α-MG at doses of 10 mg/kg, as much blood as possible was collected via the carotid artery and each mouse was then sacrificed by cervical dislocation. Each liver, spleen, stomach, small intestine, large intestine, mesentery, kidney, fat, muscle, heart, lung, and brain was excised, weighted and homogenized with a volume of distilled water at 4 times the each organ. After centrifugation for 10 min, the supernatant was collected and all samples stored at –80°C until required.

[3] = Mouse plasma protein binding using an equilibrium dialysis technique; format: in vitro ADME; conditions: pH 7.4, fresh mouse plasma
Description: A 250 μL of mouse plasma was dialyzed against 250 μL of isotonic Sørensen phosphate buffer with pH 7.4 containing 3% (w/v) dextran (‘the buffer’) in a dialysis cell using a Spectra/Por 4 membrane (molecular weight cutoff of 12000–14000; Spectrum Medical Industries). α-MG was spiked into the plasma compartment to produce an initial concentration of 1 or 20 μg/mL and all other procedures followed the reported method.

[4] = intravenous, doses of 5, 10 and 20 mg/kg

In the case of `COc1c(O)cc2oc3cc(O)c(CC=C(C)C)c(O)c3c(=O)c2c1CC=C(C)C` [α-MG, α-Mangostin], the “CLR, fu (CLR based on free fraction in plasma)” value ([1]; estimated from CLR and unbound fraction) is reported as 1.72 to 3.44 mL/min/kg, the “Ae 0–24 h (excreted in the urine as unchanged α-MG)” value ([1]; intravenous, 5 mg/kg) is reported as 0.839 ± 0.525 % of dose and the CLNR ([1]; intravenous, 5 mg/kg) is reported as 31.1 ± 7.14 mL/min/kg. For the same molecule, the “GI 24 h (remaining in the gastrointestinal tract at 24 h as unchanged α-MG)” value ([1]; intravenous, 5 mg/kg) was 3.44 ± 1.16 % of dose, the “Ae 0–24 h (excreted in the urine as unchanged α-MG)” value ([1]; intravenous, 10 mg/kg) was 0.592 ± 0.394 % of dose and the CLNR ([1]; intravenous, 10 mg/kg) was 31.1 ± 7.83 mL/min/kg. For the same molecule, the “GI 24 h (remaining in the gastrointestinal tract at 24 h as unchanged α-MG)” value ([1]; intravenous, 10 mg/kg) was 2.28 ± 1.96 % of dose, the “Ae 0–24 h (excreted in the urine as unchanged α-MG)” value ([1]; intravenous, 20 mg/kg) was 0.403 ± 0.163 % of dose and the CLNR ([1]; intravenous, 20 mg/kg) was 34.6 ± 12.3 mL/min/kg. For the same molecule, the “GI 24 h (remaining in the gastrointestinal tract at 24 h as unchanged α-MG)” value ([1]; intravenous, 20 mg/kg) was 3.42 ± 1.73 % of dose, the “Ae 0–24 h” value [1, 4] was “less than 0.839 % of the intravenous dose” and the “GI 24 h” value [1, 4] was “less than 3.44 % of the doses”. It also gave a CL renal ([1]; intravenous, 5 mg/kg) of 0.283 ± 0.194 mL/min/kg, an MRT ([1]; intravenous, 5 mg/kg) of 2.42 h and a clearance ([1]; intravenous, 5 mg/kg) of 31.4 ± 7.28 mL/min/kg. It also gave an AUC ([1]; intravenous, 5 mg/kg (n = 9)) of 2820 ng·h/mL, a half-life ([1]; intravenous, 5 mg/kg) of 3.77 ± 0.572 h and a Vd ([1]; intravenous, 5 mg/kg) of 4.3 ± 1.01 L/kg. The CL renal ([1]; intravenous, 10 mg/kg) was 0.205 ± 0.15 mL/min/kg, the MRT ([1]; intravenous, 10 mg/kg) was 2.67 h and the clearance ([1]; intravenous, 10 mg/kg) was 31.3 ± 7.95 mL/min/kg. It also gave an AUC ([1]; intravenous, 10 mg/kg (n = 8)) of 5670 ng·h/mL, a half-life ([1]; intravenous, 10 mg/kg) of 3.65 ± 1.23 h and a Vd ([1]; intravenous, 10 mg/kg) of 4.27 ± 1.97 L/kg. It also gave a CL renal ([1]; intravenous, 20 mg/kg) of 0.141 ± 0.0801 mL/min/kg, an MRT ([1]; intravenous, 20 mg/kg) of 2.4 h and a clearance ([1]; intravenous, 20 mg/kg) of 34.7 ± 12.4 mL/min/kg. For the same molecule, the AUC ([1]; intravenous, 20 mg/kg (n = 8)) was 10600 ng·h/mL, the half-life ([1]; intravenous, 20 mg/kg) was 2.88 ± 1.2 h and the Vd ([1]; intravenous, 20 mg/kg) was 4.5 ± 1.38 L/kg. The clearance ([1]; intravenous, range over doses (Table 1)) was 31.3 to 34.7 mL/min/kg, the “tissue-to-plasma (T/P) ratio” value ([2]; intravenous 10 mg/kg, kidney, at 30 min) was “greater than unity” and the “tissue-to-plasma (T/P) ratio” value ([2]; intravenous 10 mg/kg, large intestine and fat, at 180 min) was “greater than unity”. The “tissue-to-plasma (T/P) ratio” value ([2]; intravenous 10 mg/kg, liver, small intestine and lung, at 30 and 180 min) was “greater than unity”, the “tissue-to-plasma (T/P) ratio” value ([2]; oral 10 mg/kg, all tissues studied except the brain, at 30 and 180 min, 10 mg/kg) was “greater than unity; also recorded: above unity” and the fraction unbound at 1 μg/mL ([3]; 1 μg/mL) was 0.082. The fraction unbound at 20 μg/mL ([3]; 20 μg/mL) was 0.107.
